Measurements: PMC11953117 (Cancer Chemotherapy and Pharmacology, 2025)
Where two headings read alike, the source gives them in different places.

Columns and labels:
[1] = Safety endpoints (treatment-emergent AEs, CTCAE v4) in three phase 1 studies; assay type: in vivo, human
Text: AEs were collected throughout the trials, graded using Common Terminology Criteria for Adverse Events v4. Treatment-emergent AEs (TEAEs), defined as any AE that started after the first dose of study treatment or that started prior to dosing and worsened during on treatment period (by investigator report of a change in intensity) following exposure to treatment, were included in the analysis.
The rash AE endpoint pooled the following Medical Dictionary for Regulatory Activities (MedDRA) preferred terms: rash maculo-papular, rash macular, rash, rash generalized, rash papular and rash pruritic, while the diarrhea AE and hyperglycemia AE included the MedDRA preferred terms diarrhea and hyperglycemia, respectively.
The grade selection for diarrhea and rash was based on clinical relevance in terms of limiting quality of life; for hyperglycemia the grade was higher considering this is a pharmacodynamic effect of AKT inhibition and often seen as asymptomatic change of laboratory value only.

[2] = design: method as in PMID 29066505, PMID 26931343; conditions: monotherapy, cited from earlier work; for recommended phase 2 dose: based on DLTs
[3] = Continuous BID, 80 mg, N=8, pooled studies
[4] = Continuous BID, 160 mg, N=5, pooled studies
[5] = Continuous BID, 240 mg, N=13, pooled studies
[6] = Continuous BID, 320 mg, N=18, pooled studies
[7] = Continuous BID, 400 mg, N=16, pooled studies
[8] = Continuous BID, 480 mg, N=6, pooled studies
[9] = Continuous BID, 600 mg, N=2, pooled studies
[10] = Total, all doses and schedules, N=277
[11] = [2/5] BID, 640 mg, N=14, pooled studies
[12] = [2/5] BID, 800 mg, N=14, pooled studies
[13] = [4/3] BID, 360 mg, N=8, pooled studies
[14] = [4/3] BID, 480 mg, N=163, pooled studies
[15] = [4/3] BID, 640 mg, N=10, pooled studies
[16] = in total, across all doses and schedules

## NC1(C(=O)N[C@@H](CCO)c2ccc(Cl)cc2)CCN(c2ncnc3[nH]ccc23)CC1 [capivasertib, 4-amino-N-[(1S)-1-(4-chlorophenyl)-3-hydroxypropyl]-1-(7H-pyrrolo[2,3-d]pyrimidin– 4-yl)piperidine-4-carboxamide]
[1]; [3]
  AE grade ≥ 1: 8 (100) n (%)
  AE grade ≥ 3: 2 (25.0) n (%)
  AEDD (AE leading to dose discontinuation): 0 n (%)
  AEDM (AE leading to dose modification): 2 (25.0) n (%)
  Diarrhea AE grade ≥ 2: 0 n (%)
  Hyperglycemia AE grade ≥ 3: 0 n (%)
  Increased BG > 13.9 mmol/L: 0 n (%)
  Rash AE grade ≥ 2: 1 (12.5) n (%)
  SAE: 2 (25.0) n (%)
[1]; [4]
  AE grade ≥ 1: 5 (100) n (%)
  AE grade ≥ 3: 0 n (%)
  AEDD (AE leading to dose discontinuation): 0 n (%)
  AEDM (AE leading to dose modification): 1 (20.0) n (%)
  Diarrhea AE grade ≥ 2: 0 n (%)
  Hyperglycemia AE grade ≥ 3: 0 n (%)
  Increased BG > 13.9 mmol/L: 0 n (%)
  Rash AE grade ≥ 2: 1 (20.0) n (%)
  SAE: 1 (20.0) n (%)
[1]; [5]
  AE grade ≥ 1: 12 (92.3) n (%)
  AE grade ≥ 3: 4 (30.8) n (%)
  AEDD (AE leading to dose discontinuation): 1 (7.7) n (%)
  AEDM (AE leading to dose modification): 2 (15.4) n (%)
  Diarrhea AE grade ≥ 2: 4 (30.8) n (%)
  Hyperglycemia AE grade ≥ 3: 2 (15.4) n (%)
  Increased BG > 13.9 mmol/L: 4 (30.8) n (%)
  Rash AE grade ≥ 2: 3 (23.1) n (%)
  SAE: 0 n (%)
[1]; [6]
  AE grade ≥ 1: 18 (100) n (%)
  AE grade ≥ 3: 10 (55.6) n (%)
  AEDD (AE leading to dose discontinuation): 3 (16.7) n (%)
  AEDM (AE leading to dose modification): 8 (44.4) n (%)
  Diarrhea AE grade ≥ 2: 5 (27.8) n (%)
  Hyperglycemia AE grade ≥ 3: 2 (11.1) n (%)
  Increased BG > 13.9 mmol/L: 3 (16.7) n (%)
  Rash AE grade ≥ 2: 5 (27.8) n (%)
  SAE: 4 (22.2) n (%)
[1]; [7]
  AE grade ≥ 1: 16 (100) n (%)
  AE grade ≥ 3: 15 (93.8) n (%)
  AEDD (AE leading to dose discontinuation): 7 (43.8) n (%)
  AEDM (AE leading to dose modification): 15 (93.8) n (%)
  Diarrhea AE grade ≥ 2: 10 (62.5) n (%)
  Hyperglycemia AE grade ≥ 3: 4 (25.0) n (%)
  Increased BG > 13.9 mmol/L: 7 (43.8) n (%)
  Rash AE grade ≥ 2: 8 (50.0) n (%)
  SAE: 6 (37.5) n (%)
[1]; [8]
  AE grade ≥ 1: 6 (100) n (%)
  AE grade ≥ 3: 6 (100) n (%)
  AEDD (AE leading to dose discontinuation): 4 (66.7) n (%)
  AEDM (AE leading to dose modification): 5 (83.3) n (%)
  Diarrhea AE grade ≥ 2: 5 (83.3) n (%)
  Hyperglycemia AE grade ≥ 3: 2 (33.3) n (%)
  Increased BG > 13.9 mmol/L: 2 (33.3) n (%)
  Rash AE grade ≥ 2: 3 (50.0) n (%)
  SAE: 6 (100) n (%)
[1]; [9]
  AE grade ≥ 1: 2 (100) n (%)
  AE grade ≥ 3: 2 (100) n (%)
  AEDD (AE leading to dose discontinuation): 2 (100) n (%)
  AEDM (AE leading to dose modification): 1 (50.0) n (%)
  Diarrhea AE grade ≥ 2: 1 (50.0) n (%)
  Hyperglycemia AE grade ≥ 3: 0 n (%)
  Increased BG > 13.9 mmol/L: 1 (50.0) n (%)
  Rash AE grade ≥ 2: 2 (100) n (%)
  SAE: 2 (100) n (%)
[1]; [10]
  AE grade ≥ 1: 274 (98.9) n (%)
  AE grade ≥ 3: 182 (65.7) n (%)
  AEDD (AE leading to dose discontinuation): 51 (18.4) n (%)
  AEDM (AE leading to dose modification): 139 (50.2) n (%)
  Diarrhea AE grade ≥ 2: 102 (36.8) n (%)
  Hyperglycemia AE grade ≥ 3: 72 (26.0) n (%)
  Increased BG > 13.9 mmol/L: 126 (45.5) n (%)
  Rash AE grade ≥ 2: 73 (26.4) n (%)
  SAE: 107 (38.6) n (%)
[1]; [11]
  AE grade ≥ 1: 14 (100) n (%)
  AE grade ≥ 3: 11 (78.6) n (%)
  AEDD (AE leading to dose discontinuation): 2 (14.3) n (%)
  AEDM (AE leading to dose modification): 2 (14.3) n (%)
  Diarrhea AE grade ≥ 2: 3 (21.4) n (%)
  Hyperglycemia AE grade ≥ 3: 7 (50.0) n (%)
  Increased BG > 13.9 mmol/L: 8 (57.1) n (%)
  Rash AE grade ≥ 2: 2 (14.3) n (%)
  SAE: 7 (50.0) n (%)
[1]; [12]
  AE grade ≥ 1: 14 (100) n (%)
  AE grade ≥ 3: 8 (57.1) n (%)
  AEDD (AE leading to dose discontinuation): 1 (7.1) n (%)
  AEDM (AE leading to dose modification): 8 (57.1) n (%)
  Diarrhea AE grade ≥ 2: 3 (21.4) n (%)
  Hyperglycemia AE grade ≥ 3: 5 (35.7) n (%)
  Increased BG > 13.9 mmol/L: 9 (64.3) n (%)
  Rash AE grade ≥ 2: 2 (14.3) n (%)
  SAE: 5 (35.7) n (%)
[1]; [13]
  AE grade ≥ 1: 6 (75.0) n (%)
  AE grade ≥ 3: 3 (37.5) n (%)
  AEDD (AE leading to dose discontinuation): 0 n (%)
  AEDM (AE leading to dose modification): 3 (37.5) n (%)
  Diarrhea AE grade ≥ 2: 4 (50.0) n (%)
  Hyperglycemia AE grade ≥ 3: 1 (12.5) n (%)
  Increased BG > 13.9 mmol/L: 3 (37.5) n (%)
  Rash AE grade ≥ 2: 1 (12.5) n (%)
  SAE: 0 n (%)
[1]; [14]
  AE grade ≥ 1: 163 (100) n (%)
  AE grade ≥ 3: 114 (69.9) n (%)
  AEDD (AE leading to dose discontinuation): 27 (16.6) n (%)
  AEDM (AE leading to dose modification): 90 (55.2) n (%)
  Diarrhea AE grade ≥ 2: 64 (39.3) n (%)
  Hyperglycemia AE grade ≥ 3: 45 (27.6) n (%)
  Increased BG > 13.9 mmol/L: 82 (50.3) n (%)
  Rash AE grade ≥ 2: 45 (27.6) n (%)
  SAE: 68 (41.7) n (%)
[1]; [15]
  AE grade ≥ 1: 10 (100) n (%)
  AE grade ≥ 3: 7 (70.0) n (%)
  AEDD (AE leading to dose discontinuation): 4 (40) n (%)
  AEDM (AE leading to dose modification): 2 (20.0) n (%)
  Diarrhea AE grade ≥ 2: 3 (30.0) n (%)
  Hyperglycemia AE grade ≥ 3: 4 (40.0) n (%)
  Increased BG > 13.9 mmol/L: 7 (70.0) n (%)
  Rash AE grade ≥ 2: 0 n (%)
  SAE: 6 (60.0) n (%)
[1]; [16]
  patients with AE grade ≥ 1: 98.9%
  patients with AEs grade ≥ 3: 65.7%
  patients with AEs leading to dose discontinuation: 18.4%
  patients with AEs leading to dose modification: 50.2%
  patients with SAEs: 38.6%
  patients with diarrhea AE grade ≥ 2: 36.8%
  patients with hyperglycemia grade ≥ 3: 26.0%
  patients with increased blood glucose > 13.9 mmol/L: 45.5%
  patients with rash AE grade ≥ 2: 26.4%
[2]; [2/5] schedule
  recommended phase 2 dose: 640 mg BID
[2]; [4/3] schedule
  recommended phase 2 dose: 480 mg BID
[2]; continuous schedule
  recommended phase 2 dose: 320 mg BID
[2]; first-in-human study
  dose-limiting toxicities (DLTs): diarrhea, rash, and hyperglycemia
